Marks after values point to notes of the source that are not given here.
Tests used:
Assay type in all cases: in vivo, human
hypertensive patients [1] = test: Special investigation of combined use of cilnidipine and ARB: degree of the blood pressure controls judged by the doctor (efficacy ratio); set-up: concentration or dose not given beside the values
Experimental: (§1) A special investigation was conducted in various medical centers, compiled, and analyzed to evaluate the safety and availability of the combined use of cilnidipine and at least one angiotensin II receptor blocker.
(§2) The subjects of the investigation were hypertensive patients which were adapted to cilnidipine. Combined administration of cilnidipine and ARB was started for the treatment of hypertension in these patients.
(§3) A prospective continuous investigation method was conducted. Such a method is continuously conducted with the registered cases with the combined administration of cilnidipine (Atelec®) and ARB, until the number of cases reaches the contracted cases for each center.
(§4) Regarding the administration method of cilnidipine, 5 to 10 mg of cilnidipine was orally administered after breakfast once a day. Meanwhile, the amount may increase or decrease depending on patient's age, symptoms, or the like. When the effect is insufficient, the amount can be increased to 20 mg once a day. The dosing period of cilnidipine was set to 12 weeks in principle.
(§5) The following items were tracked during the investigation: patient's background (sex), existence or nonexistence of previous therapeutic agents and the content thereof, targeted blood pressure (systolic BP/diastolic BP), the conditions of administration of cilnidipine and ARB, antihypertensives used in combination (those other than cilnidipine or ARB), clinical course (systolic BP/diastolic BP/heart rate), and occurrence of side-effects. As for the availability of the combined administration, in the 12th week after starting the combined administration, the doctor in attendance judged the degree of the blood pressure controls on a three-point scale of “well-controlled”, “nearly well-controlled” and “poorly-controlled”, referring to the changes in the systolic and diastolic BP. As for the safety and availability analysis for each patient background, Fisher's exact probability test or the X^2 test was used. As for the blood pressure and heart rate, the average value and the standard deviation were calculated for the subjects before the combined administration (within 4 weeks before starting the combined administration), and data after starting the combined administration were determined on each observation day, and analysis was conducted by using a paired t-test. The test was conducted as the two-sided test and less than 5% of the risk rate was regarded as significant. Furthermore, side-effects were compiled based on the naming of preferred terms (PT) of MedDRA/J ver 8.0.
As the index of availability, in the 12th week after starting the combined administration, the doctor in attendance judged the degree of the blood pressure controls on a three-point scale of “well-controlled”, “nearly well-controlled” and “poorly-controlled”.
(1) Among the 2919 cases in the availability analysis, 42 cases in which the degree of the blood pressure controls was not described, and 168 cases which could not be judged, were excluded. In the other 2709 cases, the ratio of number of cases judged as “nearly well-controlled” or higher was calculated as the efficacy ratio. Accordingly, the efficacy ratio of the subject cases in the availability analysis was 84.8% (2298 cases/2709 cases).

hypertensive patients [2] = test: Special investigation of combined use of cilnidipine and ARB: changes in systolic and diastolic blood pressure; details: for diastolic BP, aft. / systolic BP, aft. / diastolic BP, bef. / systolic BP, bef.: all availability cases; for diastolic BP, bef. use / systolic BP, bef. use / diastolic BP, aft. use / systolic BP, aft. use: only ARB
Experimental: as §1, §2, §3, §4, §5
Table 7 and FIG. 2 show the number of cases for which the blood pressure was measured, and the changes in the measured values of systolic BP, diastolic BP, and heart rate were measured at the following time points: before starting the combined administration, 4 weeks, 8 weeks, and 12 weeks after starting the combined administration, and the last measurement, […] administration, n=2919). […] Then, it continued to slowly decrease, and the a stable change was seen up to 12 weeks after the start.

hypertensive patients [3] = test: Special investigation of combined use of cilnidipine and ARB: changes in heart rate; details: for heart rate after starting the combined administration / heart rate after starting the combined use: 12 weeks and later up to last measurement; for heart rate, aft. / heart rate, bef.: all availability cases; for heart rate, bef. use / heart rate, aft. use: only ARB
Experimental: as §1, §2, §3, §4, §5
Table 7 and FIG. 2 show the number of cases for which the blood pressure was measured, and the changes in the measured values of systolic BP, diastolic BP, and heart rate were measured at the following time points: before starting the combined administration, 4 weeks, 8 weeks, and 12 weeks after starting the combined administration, and the last measurement, which was 222.43 days in average from the start of the combined administration, n=2919). […] Then, it continued to slowly decrease, and the a stable change was seen up to 12 weeks after the start.

[4] = cilnidipine + ARB, 4 wks after use
[5] = cilnidipine + ARB, 8 wks after use
[6] = cilnidipine + ARB, 12 wks after use
[7] = cilnidipine + ARB, before combined use, 2,586 cases
[8] = cilnidipine + ARB, last measurement (222.43 days in average)
[9] = value before combined use of the 840 cases measured at 8 wks
[10] = value before combined use of the 950 cases measured at 12 wks
[11] = value before combined use of the 1,131 cases measured at 4 wks
[12] = value before combined use of the 2,565 cases with last measurement
[13] = then cilnidipine added, value before combined use of the 338 cases measured at 8 wks
[14] = then cilnidipine added, value before combined use of the 360 cases measured at 12 wks
[15] = then cilnidipine added, value before combined use of the 453 cases measured at 4 wks
[16] = then cilnidipine added, value before combined use of the 1,047 cases with last measurement
[17] = then cilnidipine singularly added, 4 wks after the use
[18] = then cilnidipine singularly added, 8 wks after the use
[19] = then cilnidipine singularly added, 12 wks after the use
[20] = then cilnidipine singularly added, before combined use, 1,055 cases
[21] = then cilnidipine singularly added, last measurement (222.03±143.88 days)
[22] = all availability cases with heart rate 75 or higher and less than 85 beats/min. before combined use
[23] = all availability cases with heart rate 85 beats/min. or higher before combined use
[24] = only ARB then cilnidipine added, cases with heart rate 75 or higher and less than 85 beats/min. before combined use
[25] = only ARB then cilnidipine added, cases with heart rate 85 beats/min. or higher before combined use

SMILES: COCCOC(=O)C1=C(C)NC(C)=C(C(=O)OC/C=C/c2ccccc2)C1c1cccc([N+](=O)[O-])c1 (racemic) [cilnidipine, 2-methoxyethyl-3-phenyl-2(E)-propenyl(±)-1,4-dihydro-2,6-dimethyl-4-(3-nitrophenyl)-3,5-pyridinedicarboxylate]
- efficacy ratio (cases judged nearly well-controlled or higher) (hypertensive patients [1]; all subject cases in the availability analysis, 12th week after starting cilnidipine + ARB, 2298 cases/2709 cases): 84.8%
- efficacy ratio (cases judged nearly well-controlled or higher) (hypertensive patients [1]; cases on ARB alone, cilnidipine additionally administered (antihypertensives ARB and cilnidipine only)): 86.4%
- diastolic BP, aft. (hypertensive patients [2]; [4]): 80.44 ± 11.30 mmHg
- systolic BP, aft. (hypertensive patients [2]; [4]): 144.31 ± 16.64 mmHg
- diastolic BP, aft. (hypertensive patients [2]; [5]): 78.69 ± 10.99 mmHg
- systolic BP, aft. (hypertensive patients [2]; [5]): 142.28 ± 17.41 mmHg
- diastolic BP, aft. (hypertensive patients [2]; [6]): 78.64 ± 11.39 mmHg
- systolic BP, aft. (hypertensive patients [2]; [6]): 140.57 ± 16.45 mmHg
- diastolic BP, bef. (hypertensive patients [2]; [7]): 89.49 ± 13.09 mmHg
- systolic BP, bef. (hypertensive patients [2]; [7]): 162.21 ± 19.21 mmHg
- diastolic BP, aft. (hypertensive patients [2]; [8]): 78.78 ± 10.68 mmHg
- systolic BP, aft. (hypertensive patients [2]; [8]): 139.67 ± 16.47 mmHg
- diastolic BP, bef. (hypertensive patients [2]; [9]): 88.22 ± 13.53 mmHg
- systolic BP, bef. (hypertensive patients [2]; [9]): 161.13 ± 18.47 mmHg
- diastolic BP, bef. (hypertensive patients [2]; [10]): 88.56 ± 13.48 mmHg
- systolic BP, bef. (hypertensive patients [2]; [10]): 161.63 ± 18.58 mmHg
- diastolic BP, bef. (hypertensive patients [2]; [11]): 88.80 ± 12.94 mmHg
- systolic BP, bef. (hypertensive patients [2]; [11]): 161.96 ± 19.46 mmHg
- diastolic BP, bef. (hypertensive patients [2]; [12]): 89.51 ± 13.09 mmHg
- systolic BP, bef. (hypertensive patients [2]; [12]): 162.19 ± 19.11 mmHg
- diastolic BP, bef. use (hypertensive patients [2]; [13]): 90.63 ± 13.13 mmHg
- systolic BP, bef. use (hypertensive patients [2]; [13]): 162.45 ± 16.04 mmHg
- diastolic BP, bef. use (hypertensive patients [2]; [14]): 90.26 ± 12.40 mmHg
- systolic BP, bef. use (hypertensive patients [2]; [14]): 161.92 ± 15.66 mmHg
- diastolic BP, bef. use (hypertensive patients [2]; [15]): 90.72 ± 12.00 mmHg
- systolic BP, bef. use (hypertensive patients [2]; [15]): 163.61 ± 15.91 mmHg
- diastolic BP, bef. use (hypertensive patients [2]; [16]): 91.31 ± 11.47 mmHg
- systolic BP, bef. use (hypertensive patients [2]; [16]): 163.11 ± 16.40 mmHg
- diastolic BP, aft. use (hypertensive patients [2]; [17]): 81.47 ± 10.51^b mmHg
- systolic BP, aft. use (hypertensive patients [2]; [17]): 143.91 ± 15.39^b mmHg
- diastolic BP, aft. use (hypertensive patients [2]; [18]): 79.75 ± 10.37^b mmHg
- systolic BP, aft. use (hypertensive patients [2]; [18]): 140.97 ± 15.94^b mmHg
- diastolic BP, aft. use (hypertensive patients [2]; [19]): 79.71 ± 11.23^b mmHg
- systolic BP, aft. use (hypertensive patients [2]; [19]): 140.09 ± 15.37^b mmHg
- diastolic BP, bef. use (hypertensive patients [2]; [20]): 91.26 ± 11.48 mmHg
- systolic BP, bef. use (hypertensive patients [2]; [20]): 163.09 ± 16.36 mmHg
- diastolic BP, aft. use (hypertensive patients [2]; [21]): 79.68 ± 10.68^b mmHg
- heart rate before starting the combined use (hypertensive patients [3]; [22]): 79.19±2.73 beats/min.
- heart rate after starting the combined administration (hypertensive patients [3]; [22]): 76.28±8.93 beats/min.
- heart rate before starting the combined use (hypertensive patients [3]; [23]): 93.48±7.28 beats/min.
- heart rate after starting the combined administration (hypertensive patients [3]; [23]): 84.57±11.17 beats/min.
- heart rate, aft. (hypertensive patients [3]; [4]): 73.80 ± 10.80 beat/min.
- heart rate, aft. (hypertensive patients [3]; [5]): 72.87 ± 10.53 beat/min.
- heart rate, aft. (hypertensive patients [3]; [6]): 73.61 ± 10.57 beat/min.
- heart rate, bef. (hypertensive patients [3]; cilnidipine + ARB, before combined use, 1,815 cases): 75.40 ± 11.47 beat/min.
- heart rate, aft. (hypertensive patients [3]; [8]): 73.18 ± 10.37 beat/min.
- heart rate, bef. (hypertensive patients [3]; value before combined use of the 557 cases measured at 8 wks): 73.83 ± 10.49 beat/min.
- heart rate, bef. (hypertensive patients [3]; value before combined use of the 664 cases measured at 12 wks): 75.33 ± 10.98 beat/min.
- heart rate, bef. (hypertensive patients [3]; value before combined use of the 765 cases measured at 4 wks): 75.06 ± 11.46 beat/min.
- heart rate, bef. (hypertensive patients [3]; value before combined use of the 1,615 cases with last measurement): 75.18 ± 11.30 beat/min.
- heart rate before starting the combined use (hypertensive patients [3]; [24]): 79.24±2.71 beats/min.
- heart rate after starting the combined use (hypertensive patients [3]; [24]): 76.87±8.37 beats/min.
- heart rate before starting the combined use (hypertensive patients [3]; [25]): 93.64±6.90 beats/min.
- heart rate after starting the combined use (hypertensive patients [3]; [25]): 84.30±10.58 beats/min.
- heart rate, bef. use (hypertensive patients [3]; then cilnidipine added, value before combined use of the 229 cases measured at 8 wks): 72.97 ± 10.16 beat/min.
- heart rate, bef. use (hypertensive patients [3]; then cilnidipine added, value before combined use of the 249 cases measured at 12 wks): 73.98 ± 10.44 beat/min.
- heart rate, bef. use (hypertensive patients [3]; then cilnidipine added, value before combined use of the 308 cases measured at 4 wks): 73.40 ± 10.54 beat/min.
- heart rate, bef. use (hypertensive patients [3]; then cilnidipine added, value before combined use of the 648 cases with last measurement): 74.26 ± 10.58 beat/min.
- heart rate, aft. use (hypertensive patients [3]; [17]): 72.49 ± 10.25^a beat/min.
- heart rate, aft. use (hypertensive patients [3]; [18]): 72.62 ± 10.60 beat/min.
- heart rate, aft. use (hypertensive patients [3]; [19]): 72.54 ± 10.28^a beat/min.
- heart rate, bef. use (hypertensive patients [3]; then cilnidipine singularly added, before combined use, 738 cases): 74.46 ± 10.76 beat/min.
- heart rate, aft. use (hypertensive patients [3]; [21]): 73.24 ± 10.51^a beat/min.

From US20080051438A1, “Preventive/Therapeutic Compositions Useful for Treating Cardiovascular Diseases” (priority 2006, published 2008)
